Consider one compound from US20130096160A1, “ARYLTHIAZOLYL PIPERIDINES AND RELATED COMPOUNDS AS MODULATORS OF SURVIVAL MOTOR NEURON (SMN) PROTEIN PRODUCTION” (Secretary, Department of Health and Human Services, priority 2010, published 2013).

The test system of one data set is human SMN protein. The data set is described as follows: Western blot of SMN protein in SMA patient fibroblasts (3813). Format: cell-based. As to conditions: SMA patient cells (3813), 0.1-10 μM, FIG. 2. On the procedure:
Type I spinal muscular atrophy (SMA)-affected human primary fibroblasts (#GM03813) and carrier parents (#GM03814, parent and #GM03815, […]) are obtained live with low passage number from Coriell Cell Repositories. […] For detection of SMN protein in patient fibroblasts, 8,000 cells per cm^2 are plated 24 hours prior to drug addition. Fresh media and compound are added every 24 hours. After 72 hours, cells are harvested, washed with cold PBS, and lysed. Samples are subjected to polyacrylamide gel electrophoresis (PAGE). It is determined that 10 μg total protein per lane is within the linear range for immunoblot detection of SMN and alpha-tubulin. Western blots of the gel are probed for SMN with the 4B7 mouse monoclonal antibody (from the lab of Christian Lorson). A goat anti-mouse antibody (Santa Cruz Biotechnology/#sc-2005) conjugated to horseradish peroxidase (HRP) is used as the secondary antibody. Quantification of protein is performed by detecting chemiluminescence with a Fujifilm LAS-4000 Multifunctional Imaging System. […] We incubated a fibroblast cell line from a type I SMA patient (3813 cell line) with different doses of analogues and assessed the SMN protein level by quantitative western blotting (FIG. 4). We observed that analogue 8 m at concentration of 37 nanomolar increased the SMN protein level by 2-3 fold. […] This could be due with the intrinsic mechanism of action or to other causes, such us concentration dependent compound solubility.
For orientation: Immunoblotting shows a protein as a band on a membrane.

The next data set deals with CaCo-2 cells. As to the kind of experiment: in vitro. It counts as in vitro ADME. On the procedure: CaCo-2 cells grown in tissue culture flasks are trypsinized, suspended in medium, and the suspensions are applied to wells of a collagen-coated BioCoat Cell Environment in 24-well format (BD Biosciences) at 24,500 cells per well. The cells are allowed to grow and differentiate for three weeks, feeding at 2-day intervals.
For Apical to Basolateral (A->B) permeability, the test agent is added at 50 μM to the apical (A) side and amount of permeation is determined on the basolateral (B) side; for Basolateral to Apical (B>A) permeability, the test agent is added at 50 μM to the B side and the amount of permeation is determine on the A side. The A-side buffer contains 100 μM Lucifer yellow dye, in Transport Buffer (1.98 g/L glucose in 10 mM HEPES, 1× Hank's Balanced Salt Solution) pH 6.5, and the B-side buffer is Transport Buffer, pH 7.4. CaCo-2 cells are incubated with these buffers for 2 h., and the receiver side buffer is removed for analysis by liquid chromatography-mass spectrometry (LC/MS/MS).
Additionally, several control compounds are tested in the identical assay.
To verify that CaCo-2 cell monolayers are properly formed, aliquots of the cell buffers are analyzed by fluorescence to determine the transport of the impermeable dye Lucifer Yellow.
Data are expressed as permeability (Papp): […]
where dQ/dt is the rate of permeation, C0 is the initial concentration of test agent, and A is the area of the monolayer.
In bidirectional permeability studies, the asymmetry index (AI) or efflux ratio is also calculated:
An AI>1 indicated a potential substrate for PGP or other active transporters.
Samples are analyzed by LC/MS/MS using either an Agilent 6410 mass spectrometer coupled with an Agilent 1200 high performance liquid chromatography (HPLC) and a CTC PAL chilled autosampler, all controlled by MassHunter software (Agilent), or an ABI2000 mass spectrometer coupled with an Agilent 1100 HPLC and a CTC PAL chilled autosampler, all controlled by Analyst software (ABI). After separation on a C18 reverse phase HPLC column (Agilent, Waters, or equivalent) using an acetonitrile-water gradient system, peaks are analyzed by mass spectrometry (MS) using electrospray ionization (ESI) in multiple reaction monitoring (MRM) mode.
The signal is optimized for each compound by ESI positive or negative ionization mode. A MS2 selected ion monitoring (SIM) scan is used to optimize the precursor ion and a product ion analysis is used to identify the best fragment for analysis and to optimize the collision energy.

`NC(=O)C1CCN(c2nc(-c3ccc(Br)cc3)cs2)CC1` [MLS000698854]: the “SMN protein by Western blot (in words)” value in the data set with human SMN protein is recorded as “concentration-dependent increase in SMN protein”. For the same compound, in the data set on CaCo-2 cells, the “Caco-2 permeability (in words)” value was “highly permeable”, the “Pgp substrate (in words)” value is recorded as “no indication of being a Pgp substrate”, the “mean A->B Papp” value is recorded as 32.6 10^−6 cm s^−1 and the “mean B->A Papp” value was 12.0 10^−6 cm s^−1.
